Among the data in PubChem BioAssay AID256 (DTP/NCI, 2004) are T/C values, retold here.

Structures are written as SMILES. Several values for one entry are separate records, joined by “and”; a condition that tells them apart may be missing. Equal entries are not always repeated. Toxic doses and inconclusive results are not listed.

The subject of the assay is CD2F1 mice, L1210 leukemia ip, survival T/C. In words: NCI In Vivo Anticancer Drug Screen. Data for tumor model L1210 Leukemia (intraperitoneal) in CD2F1 (CDF1) mice. To be noted: higher = longer survival. The procedure, abridged:
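Implant tumor; dose compound or vehicle; measure endpoint in both groups; report treated divided by control.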

Where [1] appears, read: endpoint: mean survival time, dose: 100.0 mg/kg/injection, schedule: Q01DX001 (ip), vehicle: saline with Tween-80.
Setting [2] is: endpoint: mean survival time, dose: 200.0 mg/kg/injection, schedule: Q01DX001 (ip), vehicle: saline with Tween-80.
The mark [3] stands for this setting: endpoint: mean survival time, dose: 400.0 mg/kg/injection, schedule: Q01DX001 (ip), vehicle: saline with Tween-80.
Setting [4] is: endpoint: mean survival time, dose: 100.0 mg/kg/injection, schedule: Q01DX009 (ip), vehicle: saline with Tween-80.
Where [5] appears, read: endpoint: mean survival time, dose: 100.0 mg/kg/injection, schedule: Q04DX003 (ip), vehicle: saline with Tween-80.
Where [6] appears, read: endpoint: mean survival time, dose: 200.0 mg/kg/injection, schedule: Q01DX009 (ip), vehicle: saline with Tween-80.
Where [7] appears, read: endpoint: mean survival time, dose: 200.0 mg/kg/injection, schedule: Q04DX003 (ip), vehicle: saline with Tween-80.
The mark [8] stands for this setting: endpoint: mean survival time, dose: 400.0 mg/kg/injection, schedule: Q01DX009 (ip), vehicle: saline with Tween-80.
[9] abbreviates: endpoint: mean survival time, dose: 400.0 mg/kg/injection, schedule: Q04DX003 (ip), vehicle: saline with Tween-80.
Setting [10] is: endpoint: mean survival time, dose: 100.0 mg/kg/injection, schedule: Q01DX009 (ip), vehicle: other.
Setting [11] is: endpoint: mean survival time, dose: 100.0 mg/kg/injection, schedule: Q04DX003 (ip), vehicle: other.
Where [12] appears, read: endpoint: mean survival time, dose: 200.0 mg/kg/injection, schedule: Q04DX003 (ip), vehicle: other.
[13] abbreviates: endpoint: mean survival time, dose: 400.0 mg/kg/injection, schedule: Q01DX009 (ip), vehicle: other.
Setting [14] is: endpoint: mean survival time, dose: 400.0 mg/kg/injection, schedule: Q04DX003 (ip), vehicle: other.
Where [15] appears, read: endpoint: mean survival time, dose: 50.0 mg/kg/injection, schedule: Q01DX001 (ip), vehicle: saline with Tween-80.
Setting [16] is: endpoint: mean survival time, dose: 25.0 mg/kg/injection, schedule: Q01DX009 (ip), vehicle: saline with Tween-80.
The mark [17] stands for this setting: endpoint: mean survival time, dose: 50.0 mg/kg/injection, schedule: Q01DX009 (ip), vehicle: saline with Tween-80.

Take `Cc1cc(C)c(O)c(C)c1`: the T/C is, setting by setting: (endpoint: mean survival time, dose: 50.0 mg/kg/injection, schedule: Q01DX009 (ip), vehicle: Klucel (hydroxypropylcellulose) (HPC)) 96 % of control; (endpoint: mean survival time, dose: 100.0 mg/kg/injection, schedule: Q01DX009 (ip), vehicle: Klucel (hydroxypropylcellulose) (HPC)) 93 % of control; (endpoint: mean survival time, dose: 200.0 mg/kg/injection, schedule: Q01DX009 (ip), vehicle: Klucel (hydroxypropylcellulose) (HPC)) 93 % of control.

In the case of `CCC1(O)C(=O)OCc2c1cc1n(c2=O)Cc2cc3ccc(/C=N/N=C(N)N)cc3nc2-1` (stereo unspecified), the T/C (endpoint: median survival time, dose: 10.0 mg/kg/injection, schedule: Q04DX002 (ip), vehicle: saline with Tween-80) is 106 % of control; the T/C (endpoint: median survival time, dose: 20.0 mg/kg/injection, schedule: Q04DX002 (ip), vehicle: saline with Tween-80) is 113 % of control; the T/C (endpoint: median survival time, dose: 40.0 mg/kg/injection, schedule: Q04DX002 (ip), vehicle: saline with Tween-80) was 102 % of control; the T/C (endpoint: median survival time, dose: 80.0 mg/kg/injection, schedule: Q04DX002 (ip), vehicle: saline with Tween-80) is 102 % of control.

In the case of `COC(=O)C1OC([n+]2ccccc2)C(OC(C)=O)C(OC(C)=O)C1OC(C)=O` (stereo unspecified), the T/C reads like this: (endpoint: median survival time, dose: 12.5 mg/kg/injection, schedule: Q01DX005 (ip), vehicle: saline) 103 % of control; (endpoint: median survival time, dose: 25.0 mg/kg/injection, schedule: Q01DX005 (ip), vehicle: saline) 107 % of control; (endpoint: median survival time, dose: 50.0 mg/kg/injection, schedule: Q01DX005 (ip), vehicle: saline) 100 % of control; (endpoint: median survival time, dose: 100.0 mg/kg/injection, schedule: Q01DX005 (ip), vehicle: saline) 107 % of control; (endpoint: median survival time, dose: 200.0 mg/kg/injection, schedule: Q01DX005 (ip), vehicle: saline) 103 % of control.

For `[Br][Ni][Br].[NH-]CC[NH-].[NH-]CC[NH-]`, the T/C is, setting by setting: (endpoint: mean survival time, dose: 25.0 mg/kg/injection, schedule: Q04DX002 (ip), vehicle: saline with Tween-80) 104 % of control; (endpoint: mean survival time, dose: 50.0 mg/kg/injection, schedule: Q04DX002 (ip), vehicle: saline with Tween-80) 110 % of control.

Turning to `CCCCCCCCCC/C(C)=N/Nc1ccc([N+](=O)[O-])cc1[N+](=O)[O-]`, the T/C is 94 % of control under setting [1], 89 % of control under setting [2] and 93 % of control under setting [3].

With `c1ccc(CN2CCc3cc4c(cc3C2)OCO4)cc1`, the T/C is, setting by setting: (endpoint: mean survival time, dose: 37.5 mg/kg/injection, schedule: Q01DX001 (ip), vehicle: saline) 102 % of control; (endpoint: mean survival time, dose: 75.0 mg/kg/injection, schedule: Q01DX001 (ip), vehicle: saline) 102 % of control; (endpoint: mean survival time, dose: 150.0 mg/kg/injection, schedule: Q01DX001 (ip), vehicle: saline) 90 % of control.

On to `O=C(O)C1CC2C=CC1C2` (stereo unspecified), for which the T/C was 94 % of control under setting [4]; 96 % of control under setting [5]; 91 % of control under setting [6]; 96 % of control under setting [7]; 94 % of control under setting [8]; 94 % of control under setting [9].

On to `[I-].[Ni+2].[O-]/N=C/c1ccccn1.[O-]/N=C/c1ccccn1.[O-]/N=C/c1ccccn1`, for which the T/C (endpoint: mean survival time, dose: 100.0 mg/kg/injection, schedule: Q01DX001 (ip), vehicle: saline) was 106 % of control.

Turning to `CCCCCCCCCC(O)CCCCCCCCC`, the T/C under setting [10] is 102 % of control; the T/C under setting [11] was 103 % of control; the T/C (endpoint: mean survival time, dose: 200.0 mg/kg/injection, schedule: Q01DX009 (ip), vehicle: other) is 91 % of control; the T/C under setting [12] was 94 % of control; the T/C under setting [13] is 91 % of control; the T/C under setting [14] was 94 % of control.

Take `CN(Cc1cnc2nc(N[Si](C)(C)C)nc(N[Si](C)(C)C)c2n1)c1ccc(C(=O)NC(CCC(=O)O[Si](C)(C)C)C(=O)O[Si](C)(C)C)cc1` (stereo unspecified): the T/C reads like this: (endpoint: mean survival time, dose: 1.25 mg/kg/injection, schedule: Q01DX009 (ip), vehicle: saline) 159 % of control; (endpoint: mean survival time, dose: 1.9 mg/kg/injection, schedule: Q04DX003 (ip), vehicle: saline) 117 % of control; (endpoint: mean survival time, dose: 2.5 mg/kg/injection, schedule: Q01DX009 (ip), vehicle: saline) 172 % of control; (endpoint: mean survival time, dose: 7.5 mg/kg/injection, schedule: Q04DX003 (ip), vehicle: saline) 159 % of control; (endpoint: mean survival time, dose: 15.0 mg/kg/injection, schedule: Q04DX003 (ip), vehicle: saline) 178 % of control; (endpoint: mean survival time, dose: 20.0 mg/kg/injection, schedule: Q01DX009 (ip), vehicle: saline) 103 % of control. The T/C by setting is: (endpoint: mean survival time, dose: 30.0 mg/kg/injection, schedule: Q04DX003 (ip), vehicle: saline) 193 % of control; (endpoint: mean survival time, dose: 60.0 mg/kg/injection, schedule: Q04DX003 (ip), vehicle: saline) 155 % of control; (endpoint: mean survival time, dose: 120.0 mg/kg/injection, schedule: Q04DX003 (ip), vehicle: saline) 117 % of control.

For the compound `Nc1nc(-c2cccc([N+](=O)[O-])c2)c(N=Nc2ccc(Br)cc2)s1`, the T/C is 96 % of control under setting [1], 87 % of control under setting [2] and 90 % of control under setting [3].

Consider `c1cc2nc(c1)CSCCCCCCCSC2`, for which the T/C is 98 % of control under setting [4], 90 % of control under setting [6] and 93 % of control under setting [8].

For the compound `O=C(O)/C=C/c1ccc([N+](=O)[O-])o1`, the T/C (endpoint: mean survival time, dose: 25.0 mg/kg/injection, schedule: Q01DX001 (ip), vehicle: saline with Tween-80) was 96 % of control; the T/C under setting [15] was 89 % of control; the T/C under setting [1] is 115 % of control and 98 % of control; the T/C under setting [2] is 94 % of control.

Regarding `CCCCCCCCC[n+]1ccc(C(N)=O)cc1`, the T/C runs as follows: under setting [16], 103 % of control; under setting [17], 95 % of control; under setting [4], 95 % of control.

On to `Cc1cc(C)c(/C(O)=C/C(=S)N2CCOCC2)c(C)c1`, for which the T/C under setting [5] was 98 % of control, the T/C under setting [7] is 98 % of control and the T/C under setting [9] was 98 % of control.

Turning to `Cc1ccc(C(=O)CCC(=O)O)c(C)c1`, the T/C is, setting by setting: under setting [4], 100 % of control; under setting [6], 105 % of control; under setting [8], 98 % of control.

As for `N#C/C(=C\c1c[nH]c2ccccc12)C(N)=O`, the T/C reads like this: under setting [10], 93 % of control; under setting [4], 97 % of control; under setting [6], 92 % of control; under setting [13], 88 % of control; under setting [8], 97 % of control.

In the case of `CC(=O)Nc1ccc2c(c1)Cc1ccccc1-2`, the T/C by setting is: under setting [4], 101 % of control; under setting [5], 87 % of control; under setting [6], 95 % of control; under setting [7], 101 % of control; under setting [8], 101 % of control; under setting [9], 90 % of control.

As to `C1CC2CC1C1OC21` (stereo unspecified), the T/C was 94 % of control under setting [11], 96 % of control under setting [12] and 91 % of control under setting [14].

As for `Cc1cccc(NC(=O)/C=C/C(=O)O)c1`, the T/C is, setting by setting: under setting [4], 94 % of control; under setting [6], 100 % of control.

As to `O=C=Nc1cccc2c(N=C=O)cccc12`, the T/C (endpoint: mean survival time, dose: 12.5 mg/kg/injection, schedule: Q01DX009 (ip), vehicle: saline with Tween-80) is 91 % of control; the T/C under setting [16] is 102 % of control; the T/C under setting [17] was 91 % of control.

`O=C(O)c1ccccc1Oc1ccccc1C(=O)O`: the T/C is 101 % of control (endpoint: mean survival time, dose: 100.0 mg/kg/injection, schedule: Q01DX009 (ip), vehicle: saline); 101 % of control (endpoint: mean survival time, dose: 200.0 mg/kg/injection, schedule: Q01DX009 (ip), vehicle: saline); 94 % of control (endpoint: mean survival time, dose: 400.0 mg/kg/injection, schedule: Q01DX009 (ip), vehicle: saline).

In the case of `c1ccc(C2=C(c3ccccc3)OC(c3ccccc3)=C(c3ccccc3)O2)cc1`, the T/C reads like this: under setting [16], 92 % of control; under setting [15], 87 % of control; under setting [17], 102 % of control; under setting [1], 89 % of control; under setting [4], 88 % of control.

In the case of `CCc1ccc(N=Nc2ccc(N(C)C)cc2)cc1CC`, the T/C is, setting by setting: (endpoint: mean survival time, dose: 75.0 mg/kg/injection, schedule: Q04DX002 (ip), vehicle: saline with Tween-80) 92 % of control; (endpoint: mean survival time, dose: 150.0 mg/kg/injection, schedule: Q04DX002 (ip), vehicle: saline with Tween-80) 92 % of control; (endpoint: mean survival time, dose: 300.0 mg/kg/injection, schedule: Q04DX002 (ip), vehicle: saline with Tween-80) 88 % of control.
